In patent US4182770A, “Alcohol deterrent” (priority 1976, dated 1980):
“Also recorded” adds a separate entry of the source. Read-outs that look alike come from different tables or passages of the source.

Key:
[1] = Critical examinations for possible damages (clinical laboratory and blood pressure determinations); format: in vivo, humans; settings: bilirubin in the blood
From the text: In addition to the treatment with I, critical examinations for possible damages were undertaken. […] However, this observation probably only applies indirectly and exclusively to alcohol-toxic liver damages because toxic alcohol which was no longer inhibited, no longer acted upon the liver.

[2] = Half-life time of the active material; settings: in vivo
important enzyme systems [3] = experiment: Inhibition of important enzyme systems; format: biochemical; settings: compound I
From the text: (§1) In contrast, important enzyme systems are inhibited by use of disulfiram.

trypanosomes = settings: known from P 16 20 043 / GB 1,133,408; cited from earlier work
[4] = Side effects / tolerability on administration; format: in vivo, humans
From the text: It can even appear upon merely smelling the atmosphere of a barroom. […] However, in comparison with the known severe results of a marked abuse of alcohol, these side effects are negligible.

[5] = system: acetaldehyde content of the blood; experiment: Acetaldehyde content of the blood after the consumption of alcohol; format: in vivo
From the text: as §1

[6] = system: aversion to alcohol in humans; experiment: Alcohol withdrawal/aversion treatment in patients (case histories); format: in vivo
Experimental: In a particularly preferred mode of administration, tablets or dragees containing about 800 mg. of I are used. As an example of its use, after at least 12 hours of alcohol abstention, a half tablet (400 mg.) can be given in the morning before eating, and another half on the next day.
22 Men and 5 women were treated with the new agent I. The youngest patient was 22 and the oldest 68. The average age was 44 years. After the first administration (400 mg., twice), as described above, the dosage consisted of a single oral administration of 800 mg. per week. The highest total dosage amounted to 67 g. of I. With this, the patient could be protected against the influence of alcohol for 84 weeks.
In assessment of success, 5 cases are to be discounted from the total of 27 I treatments. […] Thus, 22 cases remain which can be considered as I treatments. In 12 of these cases, the withdrawal treatment was successful; in three cases questionable; and 7 cases without success. […] After taking 11 g. of I and more (corresponding to an active level period of over 14 weeks), 8 successful cases were counted and two had questionable success. Below 6 g. of I (corresponding to an active level of not more than 8 weeks), there were seven failures; one questionable case and only 2 successful withdrawals.

[7] = disulfiram, cited from earlier work
important enzyme systems [8] = settings: disulfiram; cited from earlier work
[9] = after administration of I, humans
[10] = below 6 g. of I (active level of not more than 8 weeks)

In the case of `Cc1nc([N+](=O)[O-])cn1-c1ccc([N+](=O)[O-])cc1` [compound I, 1-(4-nitrophenyl)-2-methyl-4-nitroimidazole], the liver function tests ([1]; γ-GT and γ-globulins, probably indirect, alcohol-toxic liver damages only) is reported as “clear normalizations”, the “harmful side effects in laboratory examinations” value ([1]; lymphocytes, GT, GOT, GPT, total protein, β-globulins, γ-globulins, cholesterol, RR systolic) is reported as “no indications of harmful side effects” and the half-life [2] is reported as over 40 h. The “inhibition of important enzyme systems” value (important enzyme systems [3]) was “No such inhibition occurs”, the “effectiveness against disease-causing trypanosomes” value (trypanosomes) was “effectiveness” and the compatibility ([4]; Example 1: after first 400 mg.) was “Good compatibility”. The “severity of side effects” value [4, 9] was “generally minor”, the “side effects which occasionally appear” value [4, 9] was “tachycardia, flush-like skin reddenings, sickly feelings, headache and hangover” and the “acetaldehyde content of the blood” value [5] was “increase”. The successful cases ([6]; 11 g. of I and more (active level period of over 14 weeks)) was 8 cases, the “correlation of success with period of the withdrawal treatment” value ([6]; 22 evaluable cases) was “clearly correlated” and the outcome of treatment ([6]; Example 1: champagne cellerman, total dosage 67 g., first treatment from May 1972) was “the patient behaved normally and worked regularly”. The “outcome of renewed treatment” value ([6]; Example 1: treatment begun again after relapse in May 1974, up to January 1975) was “same good success”, the “effect of alcohol after discontinuation of treatment” value ([6]; Example 2: one month after discontinuation (treated November 1973 to February 1974)) was “throbbing headache caused by alcohol” and the outcome of treatment ([6]; Example 2: storekeeper, total dosage 57 g., since April 1974, relatively regular taking of tablets) was “normal, regular work”. For the same molecule, the outcome of treatment ([6]; Example 3: total dosage 37 g., after renewed treatment November 1973 to January 1975) was “no alcohol”, the outcome of treatment ([6]; Example 4: immigrant worker, total dosage 25 g., statement of spouse) was “successful breaking of the habit” and the “alcohol consumption since the end of the treatment” value ([6]; Example 4: total dosage 25 g., according to statements of the wife) was “only had an occassional 1-2 glasses of wine”. For the same molecule, the outcome of treatment ([6]; Example 5: employee, total dosage 17 g., after treatment September 1974 to February 1975) was “alcohol-free”, the revulsion against alcohol ([6]; after the administration of I, humans) was “a pronounced revulsion against alcohol is produced; also recorded: causes an aversion to alcohol in humans” and the failures [6, 10] was “seven”. The questionable case [6, 10] was “one”, the successful withdrawals [6, 10] was 2 and the “patient protected against the influence of alcohol, duration” value ([6]; highest total dosage 67 g., 400 mg. twice, then oral 800 mg. per week) was 84 weeks. For the same molecule, the withdrawal treatment questionable ([6]; of 22 evaluable cases) was “three”, the withdrawal treatment successful ([6]; of 22 evaluable cases) was 12 cases and the “withdrawal treatment without success” value ([6]; of 22 evaluable cases) was 7 cases.

In the case of `CCN(CC)C(=S)SSC(=S)N(CC)CC` [disulfiram], the side effects ([7]; orally administered) is listed as “several undesirable side effects”, the contraindication ([7]; inter alia diabetes) is listed as “contraindicated by, inter alia, diabetes” and the “inhibition of important enzyme systems” value (important enzyme systems [8]) is listed as “inhibited”.
